# Counter-ions that a name gives are not always drawn. Like-named read-outs stand apart in the source and are kept apart here.
# What was measured:
# [1] = test system: neonatal mice; experiment: Sedative activity, observation of orally dosed mice; format: in vivo; conditions: 6 neonatal mice, at 1 mg/kg and at 10 mg/kg, observed for 2 hours versus control mice
# Procedure: m-amino Clonidine was administered orally to 6 neonatal mice at 1 mg/kg and at 10 mg/kgwhichwere observed for 2 hours in comparison with control mice.
# [2] = test system: piglets; format: in vivo; conditions: groups of 2 piglets; for MEAN SCOUR SCORE ± SEM: score 0-3
# [3] = 0.1 mg/kg p.o., duration of test 6 h
# [4] = 0.1 mg/kg p.o., duration of test 12 h
# [5] = 0.2 mg/kg p.o., duration of test 6 h
smiles,measurement,setting,value
"Nc1ccc(Cl)c(N=C2NCCN2)c1Cl [Example 3, 2-(3-amino-2,6-dichlorophenylimino) imidazolidine]",sedation,[1],marked sedation
"Clc1cc(NCc2ccccc2)cc(Cl)c1N=C1NCCN1 [Example 4, 2-(4-Eenzylamino-2,6-dichlorophenylimino)imidazolidine_ hydrochloride]",o/o INHIBITION OF SCOUR,[2]; [3],15 o/o
same,MEAN SCOUR SCORE ± SEM,[2]; [3],2.3 ± 0.5
same,o/o INHIBITION OF SCOUR,[2]; [4],10 o/o
same,MEAN SCOUR SCORE ± SEM,[2]; [4],1.9 ± 0.2
same,o/o INHIBITION OF SCOUR,[2]; [5],41 o/o
same,MEAN SCOUR SCORE ± SEM,[2]; [5],1.6 ± 0.1
same,MEAN SCOUR SCORE ± SEM,"[2]; 0.2 mg/kg p.o., duration of test 12 h",1.2 ± 0.2
same,o/o INHIBITION OF SCOUR,"[2]; 0.2 mg/kg p.o., duration of test 12 h, P 0.05",43 o/o
same,MEAN SCOUR SCORE ± SEM,"[2]; 1 mg/kg p.o., duration of test 6 h",0.4 ± 0.4
same,o/o INHIBITION OF SCOUR,"[2]; 1 mg/kg p.o., duration of test 6 h, P 0.01",85 o/o
same,MEAN SCOUR SCORE ± SEM,"[2]; 1 mg/kg p.o., duration of test 12 h",1.1 ± 0.2
same,o/o INHIBITION OF SCOUR,"[2]; 1 mg/kg p.o., duration of test 12 h, P 0.05",48 o/o
